Our source for the zone of inhibition, IC50 and MIC values is patent publication US7179828B2, “Biologically active neopeltolide compounds” (priority 2003, dated 2007).

Format in all cases: cell-based
Experiment [1] deals with Candida albicans (American Type Culture Collection strain 44506). In words: Agar (disk) diffusion assay. The procedure: (§1) The antifungal activity of neopeltolide against Candida albicans (American Type Culture Collection strain 44506) was determined through the use of both agar diffusion and broth dilution assays.
Agar diffusion assays were performed using Sabouraud Dextrose agar plates seeded with the test microbe at 10^5/ml. Disks (6.35 mm, Schliecher and Schuell) were impregnated with 25 μg of neopeltolide, allowed to dry and then placed on the agar surface. After incubation at 37° C. for 24 hours the zones of growth inhibition were determined. A control disk containing 100 IU nystatin was run on the same plate as the neopeltolide: the zone of inhibition was 28 mm.

The subject of experiment [2] is A549 human lung adenocarcinoma. Put plainly: In vitro proliferation of A549 tumor cells (MTT). The conditions noted are these: 72-h exposure. The procedure:
(§2) Neopeltolide was analyzed as to its effect on the proliferation of A549 human lung adenocarcinoma, NCI-ADR-RES (Formerly MCF-7/ADR) human breast cancer and P388 murine leukemia cell lines. P388 cells were obtained from Dr. R. Camalier, National Cancer Institute, Bethesda, Md., and A549 and NCI-ADR-RES cells were obtained from American Type Culture Collection, Rockville, Md.
(§3) All cell lines are maintained in Roswell Park Memorial Institute (RPMI) medium 1640 supplemented with 100 U/mL penicillin 100 μg/ml streptomycin, 60 μg/ml L-glutamine, 18 mM HEPES, 0.05 mg/mL gentamycin and 10% fetal bovine serum. […]
(§4) A volume of 75 μl of warm growth media containing 5 mg/ml MTT is added to each well, cultures returned to the incubator, and left undisturbed for 3 hours. To spectrophotometrically quantitate formation of reduced formazan, plates are centrifuged (900×g, 5 minutes), culture fluids removed by aspiration, and 200 μl of acidified isopropanol (2 ml concentrated HC/liter isopropanol) added per well. The absorbance of the resulting solutions is measured at 570 nm with a plate reader (Spectra II Tecan Laboratories). […]
(§5) The two standard drug controls (indicated above) are included in each assay to monitor the drug sensitivity of each of the cell lines and IC50 values are determined for each drug-cell combination.

The test system of experiment [3] is NCI-ADR-RES (Formerly MCF-7/ADR) human breast cancer. In words: In vitro proliferation of NCI-ADR-RES tumor cells (MTT). The conditions noted are these: 72-h exposure, read-out: NCIADR-RES IC50. The procedure: as §2, §3, §4, §5
Experiment [4] has as its system P388 murine leukemia. In words: In vitro proliferation of P388 tumor cells (MTT). The conditions noted are these: Mus musculus, 48-hr exposure. The method, then: as §2, §3, §4, §5
Experiment [5] relates to Candida albicans (American Type Culture Collection strain 44506). In words: Broth dilution assay (MIC). The conditions noted are these: read-out: Minimum Inhibitory Concentration (MIC). The method, then:
as §1
Broth dilution assays were performed as standard 96-well microtiter assays in a total volume of 50 μl with a seeding density of 10^3 cells/ml. The concentration range for neopeltolide ranged from 5 to 0.4 μg/ml as two-fold dilutions.

pIC50: −log10 of the molar value. Values after ≈ are worked out from the molar mass of the structure shown. Read-outs that look alike come from different tables or passages of the source.

For `C[C@@H]1[C@H](O)[C@@H](C)/C=C/C=C/CC/C=C/C=C/C=C/C=C/C(O[C@H]2O[C@H](C)[C@@H](O)[C@H](N)[C@@H]2O)CC2O[C@](O)(CC(O)C(O)CCC(O)CC(O)CC(O)CC(=O)O[C@H]1C)CC(O)C2C(=O)O` (stereo partly shown) [nystatin, reference compound], the zone of inhibition in experiment [1] (control disk containing 100 IU, C. albicans, 37° C., 24 hours) stood at 28 mm.
Usually pIC50 stands for the negative decadic logarithm of the IC50, by convention in mol/L. In the case of `CCCC1CC(OC)CC(C)CC2CC(OC(=O)/C=C\CCc3coc(/C=C\CNC(=O)OC)n3)CC(CC(=O)O1)O2` (stereo not shown) [Neopeltolide (I), Neopeltolide], the negative-log IC50 (pIC50) is 8.93 in experiment [2], 8.29 in experiment [3] and 9.25 in experiment [4]. Moreover, in experiment [5] (24 h), the MIC stood at 0.625 µg/mL (≈ 1.06 µM). Moreover, the zone of inhibition at 25 µg/disc in experiment [1] (Candida albicans, 24 h, read-out: growth inhibitory zone) amounted to 17 mm.
Consider `Nc1nc(=O)[nH]cc1F` [5-fluorocytosine, reference compound], for which the MIC in experiment [5] (C. albicans, 96-well broth dilution, 37° C., 24 hours, complete inhibition of growth) was 0.62 µg/mL (≈ 4.8 µM).
